Measured values: patent publication US20070149508A1, “Six membered heteroaromatic inhibitors targeting resistant kinase mutations” (TargeGen, Inc., priority 2005, published 2007)
Counter-ions that a name gives are not always drawn.

Legend:
Abl (T315I) = biological target: T1, Abl (T315I) (Homo sapiens, UniProt P00519, T315I); assay: Abl (T315I) Kinase Assay (KinaseGlo luminescent detection of residual ATP); type: biochemical; details: Abl (T315I) IC50 (nM), Abl (T315I) (Upstate, 17 ng/well), Abltide 100 uM, ATP 500 nM, 60 minutes at 37° C.
T1 construct: purchased Upstate
Method: The assay was performed similarly to the Abl kinase assay. Abl (T315I) (Upstate, 17 ng/well); Abltide substrate (100 uM) and ATP (500 nM) comprised the reaction mixture. Compound was similarly diluted, and the reaction plate was incubated for 60 minutes at 37° C.

Abl kinase = Abl kinase (Homo sapiens, UniProt P00519); assay: biochemical; details: Abl IC50 (nM), Abl kinase (Invitrogen, 20 ng/well), Abltide 100 μM, ATP 500 nM, 37° C. for 60 minutes, top concentration 10 uM

| SMILES | IC50 (Abl (T315I)) [nM] | IC50 (Abl kinase) [nM] |
| --- | --- | --- |
| Nc1nc2ccc(/C=C/c3cnc(Nc4ccc(OC5CCNCC5)cc4)nc3)cc2s1 [6-[(E)-2-(2-{[4-(piperidin-4-yloxy)phenyl]amino}pyrimidin-5-yl)vinyl]-1,3-benzothiazol-2-amine] | 428 | 259 |
| Nc1nc2ccc(/C=C/c3cnc(Nc4ccc(S(=O)(=O)C5CCNCC5)cc4)nc3)cc2s1 [6-[(E)-2-(2-{[4-(piperidin-4-ylsulfonyl)phenyl]amino}pyrimidin-5-yl)vinyl]-1,3-benzothiazol-2-amine trifluoroacetic acid salt] | 58 | 50 |
| Nc1nc2ccc(/C=C/c3cnc(Nc4ccc(S(=O)(=O)C5CCNCC5)cc4)nc3)cc2[nH]1 [6-[(E)-2-(2-{[4-(piperidin-4-ylsulfonyl)phenyl]amino}pyrimidin-5-yl)vinyl]-1H-benzimidazol-2-amine] | 169 | 192 |
| Nc1cn2cc(/C=C/c3cnc(Nc4ccc(S(=O)(=O)C5CCNCC5)cc4)nc3)ccc2n1 [6-[(E)-2-(2-{[4-(piperidin-4-ylsulfonyl)phenyl]amino}pyrimidin-5-yl)vinyl]imidazolo[1,2-a]pyridin-2-amine trifluoroacetic acid salt] | 136 | 469 |
| Nc1nc2ccc(/C=C/c3cnc(Nc4ccc(S(=O)(=O)CCCN5CCCC5)cc4)nc3)cc2s1 [6-{(E)-2-[2-({4-[(3-pyrrolidin-1-ylpropyl)sulfonyl]phenyl}amino)pyrimidin-5-yl]vinyl}-1,3-benzothiazol-2-amine trifluoroacetic acid salt] | 173 | 81 |
| Nc1nc2ccc(/C=C/c3cnc(Nc4ccc(S(=O)(=O)N5CCC(N)CC5)cc4)nc3)cc2s1 [6-{(E)-2-[2-({4-[(4-aminopiperidin-1-yl)sulfonyl]phenyl}amino)pyrimidin-5-yl]vinyl}-1,3-benzothiazol-2-amine] | 21 | 42 |
| Nc1nc2cc(C(F)(F)F)cc(/C=C/c3cnc(Nc4ccc(S(=O)(=O)C5CCNCC5)cc4)nc3)c2[nH]1 [7-((E)-2-(2-(4-(piperidin-4-ylsulfonyl)phenylamino)pyrimidin-5-yl)vinyl)-5-(trifluoromethyl)-1H-benzo[d]imidazol-2-amine] | 254 | 130 |
| Nc1cccc(/C=C/c2cnc(Nc3ccc(S(=O)(=O)C4CCNCC4)cc3)nc2)c1 [15-(3-aminostyryl)-N-(4-(piperidin-4-ylsulfonyl)phenyl)pyrimidin-2-amine Hydrochloride] | 561 | 31 |
| Nc1nc2ccc(/C=C/c3cnc(Nc4ccc(S(=O)(=O)N5CCNCC5CO)cc4)nc3)cc2s1 (centres unmarked) [(1-{[4-({5-[(E)-2-(2-amino-1,3-benzothiazol-6-yl)vinyl]pyrimidin-2-yl}amino)phenyl]sulfonyl}piperazin-2-yl)methanol] | 115 | 119 |
| Nc1nc2ccc(/C=C/c3cnc(Nc4ccc(S(=O)(=O)N5CCC(CO)CC5)cc4)nc3)cc2s1 [(1-{[4-({5-[(E)-2-(2-amino-yl)vinyl]pyrimidin-2-amino)phenyl]sulfonyl}piperidin-4-yl)methanol] | 194 | 437 |
| O=C(c1ccc(Nc2ncc(/C=C/c3cccc4[nH]ncc34)cn2)cc1)N1CCNCC1 [(4-(5-((E)-2-(1H-indazol-4-yl)vinyl)pyrimidin-2-ylamino)phenyl)(piperazin-1-yl)methanone hydrochloride] | 231 | 20 |
| Nc1nc2ccc(/C=C/c3cnc(Nc4ccc(C(=O)N5CCNCC5)cc4)nc3)cc2s1 [(4-{5-[2-(2-Amino-benzothiazol-6-yl)-vinyl]-pyrimidin-2-ylamino}-phenyl)-piperazin-1-yl-methanone] | 87 | 360 |
| O=S(=O)(c1ccc(Nc2ncc(/C=C/c3ccc(-c4c[nH]cn4)cc3)cn2)cc1)N1CCNCC1 [(5-{2-[4-(1H-Imidazol-4-yl)-phenyl]-vinyl}-pyrimidin-2-yl)-[4-(piperazine-1-sulfonyl)-phenyl]-amine] | 5040 | 2860 |
| Nc1nc2ccc(/C=C/c3cnc(Nc4ccc(S(=O)(=O)N5CCCC(O)C5)cc4)nc3)cc2s1 (centres unmarked) [(E)-1-(4-(5-(2-(2-aminobenzo[d]thiazol-6-yl)vinyl)pyrimidin-2-ylamino)phenylsulfonyl)piperidin-3-ol] | 214 | 432 |
| Nc1nc2ccc(/C=C/c3cnc(Nc4ccc(S(=O)(=O)N5CCC(O)CC5)cc4)nc3)cc2s1 [(E)-1-(4-(5-(2-(2-aminobenzo[d]thiazol-6-yl)vinyl)pyrimidin-2-ylamino)phenylsulfonyl)piperidin-4-ol] | 317 | 922 |
| Nc1nc2ccc(/C=C/c3cnc(Nc4ccc(S(=O)(=O)N5CCCNCC5)cc4F)nc3)cc2s1 [(E)-6-(2-(2-(4-(1,4-diazepan-1-ylsulfonyl)-2-fluorophenylamino)pyrimidin-5-yl)vinyl)benzo[d]thiazol-2-amine hydrochloride] | 6980 | 10800 |

| SMILES | IC50 (Abl (T315I)) [nM] | IC50 (Abl kinase) [nM] |
| --- | --- | --- |
| Cc1cc(Nc2ncc(/C=C/c3ccc4nc(N)sc4c3)cn2)ccc1S(=O)(=O)N1CCCNCC1 [(E)-6-(2-(2-(4-(1,4-diazepan-1-ylsulfonyl)-3-methylphenylamino)pyrimidin-5-yl)vinyl)benzo[d]thiazol-2-amine] | 593 | 1060 |
| Nc1nc2ccc(/C=C/c3cnc(Nc4ccc(S(=O)(=O)N5CCCNCC5)cc4)nc3)cc2s1 [(E)-6-(2-(2-(4-(1,4-diazepan-1-ylsulfonyl)phenylamino)pyrimidin-5-yl)vinyl)benzo[d]thiazol-2-amine] | 22 | 39 |
| Nc1nc2ccc(/C=C/c3cnc(Nc4ccc(S(=O)(=O)N5CCNCC5)cc4)nc3)cc2s1 [(E)-6-(2-(2-(4-(piperazin-1-ylsulfonyl)phenylamino)pyrimidin-5-yl)vinyl)benzo[d]thiazol-2-amine] | 38 | 40 |
| C[C@H](N)C(=O)N1CCC(S(=O)(=O)c2ccc(Nc3ncc(/C=C/c4cccc5[nH]ccc45)cn3)cc2)CC1 [(S)-1-(4-(4-(5-((E)-2-(1H-indol-4-yl)vinyl)pyrimidin-2-ylamino)phenylsulfonyl)piperidin-1-yl)-2-aminopropan-1-one hydrochloride] | 464 | 43 |
| O=S(=O)(NCCO)c1ccc(Nc2ncc(/C=C/c3cccc4[nH]ncc34)cn2)cc1N1CCNCC1 [N-(2-hydroxyethyl)-4-({5-[(E)-2-(1H-indazol-4-yl)vinyl]pyrimidin-2-yl}amino)-2-piperazin-1-ylbenzenesulfonamide trifluoroacetic acid salt] | 81 | 30 |
| O=S(=O)(c1ccc(Nc2ncc(/C=C/c3cccc4[nH]ncc34)cn2)cc1)N(CCO)C1CCNCC1 [N-(2-hydroxyethyl)-4-({5-[(E)-2-(1H-indazol-4-yl)vinyl]pyrimidin-2-yl}amino)-N-piperidin-4-ylbenzenesulfonamide] | 251 | 77 |
| O=S(=O)(c1ccc(Nc2ncc(/C=C/c3cccc4[nH]ccc34)cn2)cc1)N(CCO)C1CCNCC1 [N-(2-hydroxyethyl)-4-({5-[(E)-2-(1H-indol-4-yl)vinyl]pyrimidin-2-yl}amino)-N-piperidin-4-ylbenzenesulfonamide] | 728 | 430 |
| O=S(=O)(NCCO)c1ccc(Nc2ncc(/C=C/c3cccc(O)c3)cn2)cc1N1CCNCC1 [N-(2-hydroxyethyl)-4-({5-[(E)-2-(3-hydroxyphenyl)vinyl]pyrimidin-2-yl}amino)-2-piperazin-1-ylbenzenesulfonamide trifluoroacetic acid salt] | 514 | 66 |
| O=S(=O)(NCCO)c1ccc(Nc2ncc(/C=C/c3ccccc3)cn2)cc1N1CCNCC1 [N-(2-hydroxyethyl)-4-({5-[(E)-2-phenylvinyl]pyrimidin-2-yl}amino)-2-piperazin-1-ylbenzenesulfonamide trifluoroacetic acid salt] | 7340 | 406 |
| O=C(Nc1cccc(/C=C/c2cnc(Nc3ccc(S(=O)(=O)C4CCNCC4)cc3)nc2)c1)c1cccc(C(F)(F)F)c1 [N-(3-((E)-2-(2-(4-(piperidin-4-ylsulfonyl)phenylamino)pyrimidin-5-yl)vinyl)phenyl)-3-(trifluoromethyl)benzamide Hydrochloride] | 1280 | 17 |
| O=C(Nc1cccc(/C=C/c2cnc(Nc3cccnc3)nc2)c1)c1cccc(C(F)(F)F)c1 [N-(3-{2-[2-(Pyridin-3-ylamino)-pyrimidin-5-yl]-vinyl}-phenyl)-3-trifluoromethyl-benzamide] | > 10000 | 148 |
| CN1CCC(S(=O)(=O)c2ccc(Nc3ncc(/C=C/c4cccc5[nH]ncc45)cn3)cc2)CC1 [N-(4-(1-methylpiperidin-4-ylsulfonyl)phenyl)-5-((E)-2-(1H-indazol-4-yl)vinyl)pyrimidin-2-amine] | 2040 | 32 |
| C=Cc1cnc(Nc2ccc(S(=O)(=O)C3CCN(C)CC3)cc2)nc1 [N-(4-(1-methylpiperidin-4-ylsulfonyl)phenyl)-5-vinylpyrimidin-2-amine] | 1570 | 4250 |
| O=C(Nc1ccc(/C=C/c2cnc(Nc3ccc(S(=O)(=O)C4CCNCC4)cc3)nc2)cc1)c1cccc(C(F)(F)F)c1 [N-(4-((E)-2-(2-(4-(piperidin-4-ylsulfonyl)phenylamino)pyrimidin-5-yl)vinyl)phenyl)-3-(trifluoromethyl)benzamide Hydrochloride] | 1010 | 506 |
| C=Cc1cnc(Nc2ccc(S(=O)(=O)C3CCNCC3)cc2)nc1 [N-(4-(piperidin-4-ylsulfonyl)phenyl)-5-vinylpyrimidin-2-amine trifluoroacetate] | 368 | 1390 |
